Experimental data taken from patent publication US11472844B2, “Peptidomimetics, method of synthesis and uses thereof” (priority 2017, dated 2022).
“Also recorded” adds a separate entry of the source. Non-standard residues stand in square brackets, D forms with d. No end group written: not given here. *: point of attachment. X1 = CC[N+]1=C(/C=C/C=C/C=C2N(CCCCCC(=O)NCCN3C(=O)CC(*)C3=O)c3ccc(S(=O)(=O)O)cc3C2(C)C)C(C)(C)c2cc(S(=O)(=O)[O-])ccc21

Columns and labels:
[1] = test system: neutrophils recruited to rabbit ileum infected with Shigella flexneri; experiment: Rabbit ligated loop model of shigellosis, staining of fixed ileum sections; conditions: 1 μg/mL
Experimental: Rabbit. The experimental protocol was approved by the french Ethic Committee Paris 1 (number 20070004, December 9th 2007). New Zealand White rabbits weighting 2.5-3 kg (Charles River) were used for experimental infections. For each animal, up to 12 intestinal ligated loops, each 5 cm in length, were prepared as described previously (Jones et al. 2007; Martinez et al. 1988; West et al. 2005) and infected with 10^5 CFU S. flexneri pGFP per loop. After 16 h, animals were sacrificed and collected tissue were fixed in 4% Paraformaldehyde (PFA) for two hours. For immunohistochemical staining, infected rabbit ileum samples were washed in PBS, incubated at 4° C. PBS containing 12% sucrose for 90 min, then in PBS with 18% sucrose overnight, and frozen in OCT (Sakura) on dry ice. 7 μm sections were obtained using a cryostat CM-3050 (Leica). Fluorescent staining was performed in PBS+0.1% saponin using Phalloidin-RRX (1:1000 dilution) to stain Actin, MUB40-Cy5 (1 μg/mL) and a mouse anti-lactoferrin primary monoclonal antibody (Hycult biotech, clone 265-1K1, 1:50 dilution) and an anti-mouse-FITC conjugated secondary antibody (1:1000) to stain infiltrated neutrophils. Slides were washed three time in PBS+0.1% saponin, three times in PBS, and three times in deionized H2O and mounted with prolong gold^tm mounting media.

[2] = test system: human neutrophil granules; experiment: Fluorescent labelling of fixed purified human neutrophils; format: cell-based; conditions: 1 μg/mL
Experimental: (§1) Fixation and staining procedures. For microscopy studies, purified or cultured cells and polymerized lactoferrin were resuspended onto 24-well plates containing 12 mm coverslips in RMPI 1640+10 mM Hepes (when cultured in the autologous plasma) and centrifuged at 300×g for 10 min. Culture media were removed and cells were fixed in 4% Paraformaldehyde (PFA) for two hours. Fixed cells were washed three times in PBS+0.1% saponin (Sigma-Aldrich), prior immunolabeling with primary antibodies in the same buffer for 1 hour (Triton 0.1% can alternatively be used for cell permeabilization). After three additional washes in PBS+0.1% saponin, secondary antibodies and fluorescent markers were incubated for one hour. Coverslips were washed three time in PBS+0.1% saponin, three times in PBS, and three times in deionized H2O and mounted with prolong gold^tm mounting media.
(§2) Antibodies, fluorescent markers. For immunofluorescence assay, lactoferrin was detected with a mouse anti-lactoferrin primary monoclonal antibody (Hycult biotech, clone 265-1K1, 1:50 dilution) and an anti-mouse-FITC conjugated secondary antibody (1:1000). Nuclei were detected with DAPI (Life Technologies), Lyophilized MUB40 peptides (MUB40#1 (SEQ ID NO: 3)-Cy5, MUB40#2 (SEQ ID NO: 4)-Cy5, MUB40#3 (SEQ ID NO: 5)-Cy5, MUB40#4 (SEQ ID NO: 6)-Cy5, MUB40#1 (SEQ ID NO: 3)-Dylight, RI-MUB40 (SEQ ID NO: 2)-Cy5, and RI-MUB40 (SEQ ID NO: 2)-Biotin) were solubilized in a phosphate buffer pH8 at a 1 mg/mL concentration and used at a 1:1000 dilution. For PBMC staining CD19-APC (B lymphocytes), CD3-APC (T lymphocytes), and CD14-PercP (monocytes, macrophages) (BD Bioscience) were used at a 1:1000 dilution together with Dapi (1:1000) and MUB40-Cy5 (1 mg/mL). Actin was stained with Phalloidin-Rhodamine red X (RRX) (Jackson Immunoresearch Antibodies) used at a 1:1000 final dilution.
Polymorphonuclear neutrophils purification. Human polymorphonuclear neutrophils were purified as described previously (Monceaux et al. 2016). Briefly, plasma was removed by centrifugation (450×g, 15 min); blood cells were resuspended in 0.9% NaCl solution supplemented with 0.72% Dextran. After red blood cells sedimentation, white blood cells were pelleted and further separated on a two layer Percoll (GE Healthcare) (51%−42%) by centrifugation (at 240×g, 20 min). PBMC (top layer) were isolated from polymorphonuclear neutrophils (bottom layer). Red blood cells were removed from the latter fraction using CD235a (glycophorin) microbeads (negative selection) (Miltenyi Biotec). PBMCs and polymorphonuclear neutrophils were resuspended in the autologous plasma. Guinea pig and mouse polymorphonuclear neutrophils were purified with the same procedure.
Confocal microscopy. […]

[3] = test system: neutrophils recruited to guinea pig colonic mucosa infected with Shigella flexneri; experiment: Guinea pig model of shigellosis, staining of fixed colon sections; conditions: guinea pig colon, Shigella flexneri, 1 μg/ml
Experimental: Guinea pig. The experimental protocol was approved by the french Ethic Committee Paris (n° 20140069, 2014). Young guinea pigs (Hartley, <150 g, Charles River) were anaesthetized and infected intrarectally with 10^9 CFU exponentially grown Shigella flexneri 5a (M90T) pGFP as previously described (Shim et al. 2007) (Monceaux et al. 2016). Infection occurred during 8 hours before animals were sacrificed and infected colons collected and fixed in 4% Paraformaldehyde (PFA) for two hours. For immunohistochemical staining, infected guinea pig colon samples were washed in PBS and incubated at 4° C. in PBS containing 16% sucrose for 4 hours, followed by incubation in PBS with 30% sucrose overnight. Samples were frozen in OCT (VWR 361603E) on dry ice. Frozen blocks were stored at −80 until sectioning. 10 to 30 μm sections were obtained using a cryostat CM-3050S (Leica). Tissue slices were labeled in PBS+0.1% saponin (Sigma-Aldrich) with MUB40-Cy5 or MUB40-Dylight (1 μg/ml) to localize recruited neutrophils. Slides were washed three time in PBS+0.1% saponin, three times in PBS, and three times in deionized H2O and mounted with prolong gold^tm mounting media.

trypsin = trypsin (Sus scrofa, UniProt P00761); conditions: trypsin digestion, 37°C, pH8, followed up to 24 h
Experimental: Trypsin proteolysis. MUB40 (SEQ ID NO: 3)-Cy5 and RI-MUB40 (SEQ ID NO: 2)-Cy5 were dissolved in 50 mM ammonium bicarbonate, pH 8. Prior to digestion and owing to the propensity of maleimide derivatives to undergo ring-opening in a basic environment (Fontaine et al., 2015), we incubated both peptides at 37° C. overnight. Ring-opening completion was checked before trypsin addition. […] Lyophilized trypsin (Thermo scientific) was reconstituted using 50 mM acetic acid, diluted with 50 mM ammonium bicarbonate and added to the peptide solution so as to obtain a final peptide concentration of 0.25 mg/mL and a protease to protein ratio of 1:20 (w/w). Samples were directly incubated on the injection sampler thermostated at 37° c. HPLC and LC-MS analyses were performed as previously described above, applying a 15% to 40% linear gradient of acetonitrile in 10 mM ammonium acetate over 20 minutes.
Hydrolysis experiments were done in solution at 37° c., pH8 and monitored by HPLC by measuring the peak area of the remaining intact peptides.

human colonic mucus = experiment: Fluorescent labelling of human colonic mucus layer; format: binding; conditions: 1 μg/mL
Experimental: Colon explant surgical collection. In summary, human colon segments (ascending, descending, and sigmoid colon) were obtained from fully informed patients undergoing surgery for colon carcinoma and were analyzed anonymously. Patient written consent was obtained, according to the French bioethics law. None of the patients had undergone radiotherapy or chemotherapy. According to the pathologist's examination rules for the longitudinally bisected colon, a healthy segment of tissue, which was distant from the tumor region and devoid of metastatic cells, was removed. Tissues were processed according to the French Government guidelines for research on human tissues and the French Bioethics Act with the authorization no RBM 2009-50.
as §1, with “Coverslips were washed three time in PBS+0.1% saponin, three times in PBS, and three times in deionized H2O and mounted with prolong gold^tm mounting media.” left out
as §2, with “For PBMC staining CD19-APC (B lymphocytes), CD3-APC (T lymphocytes), and CD14-PercP (monocytes, macrophages) (BD Bioscience) were used at a 1:1000 dilution together with Dapi (1:1000) and MUB40-Cy5 (1 mg/mL). Actin was stained with Phalloidin-Rhodamine red X (RRX) (Jackson Immunoresearch Antibodies) used at a 1:1000 final dilution.” left out

living human neutrophils = experiment: Live microscopy of neutrophils infected with Shigella flexneri; format: cell-based
Experimental: Neutrophil infection. Human purified neutrophils were cultured in glass-bottom dishes (Mattek) for live fluorescent microscopy in a RMPI 1640 (Life Technologies) culture medium supplemented with 10% of heat inactivated Human Serum (Sigma-Aldrich). Neutrophils (5.10^5 cell/mL in 2 mL) were infected with exponentially-grown Shigella flexneri 5a pGFP at a Multiplicity Of Infection (MOI) 20 in RMPI 1640 (Life Technologies) culture medium supplemented with 10 mM Hepes (Life Technologies) at 37° C. Infected neutrophils were centrifuged at 2000 rpm for 10 min prior imaging.
Live epifluorescence microscopy. Viable neutrophils infected with S. flexneri pGFP were imaged on a Definite focus live microscope (Zeiss) equipped with a temperature control chamber (37° C.) and a 63× oil immersion objective. Images were acquired every 60 s. Z-stack images were taken with […] step-size increments. Obtained Z-stack images were processed with Fiji software to generate a Movie and the corresponding extracted images are shown in FIG. 16a.

[4] = test system: inflammatory sites, localized in joints; experiment: Mouse arthritis model (K/B×N serum transfer), in vivo epifluorescence imaging
Experimental: Mouse arthritis model. 6-7 weeks old female C57BL/6J mice were purchased from Charles River France, housed under specific pathogen-free (SPF) conditions and handled in accordance with French and European directives. Mouse protocols were approved by the Animal Ethics committee CETEA number 89 (Institut Pasteur, Paris, France) and registered under #2013-0103, and by the French Ministry of Research under agreement #00513.02. Arthritis was induced by i.v. injection of 120 μL K/B×N serum and arthritis scored as described previously (Bruhns et al. 2003). Mice injected with physiological saline were used as controls. On day 6 after serum transfer, mice were anesthetized, shaved, depilated and injected i.p. with luminol (10 mg/mouse) and i.v. with 5 μg/mouse MUB-40 Cy5. Epifluorescence, bioluminescence and CT images were acquired 10-90 min after injection using an IVIS SpectrumCT (Perkin Elmer).

[5] = test system: mucus produced by human cell lines (L174T); experiment: Binding to mucus produced by human cell lines; format: cell-based
[6] = test system: hind and front inflamed ankles; experiment: K/B×N mice, ankle fluorescence imaging after intravenous injection; format: in vivo, mouse; conditions: 2 days post i.v. injection of 0.9 nmoles; p<0.01 vs MUB40-Cy5, p<0.001 vs Cy5 only
Description: (A) Ankles of K×B/N mice were imaged 2 Days after intravenous injection of 0.9 nmoles of RI-MUB40-Cy5 (SEQ ID NO: 2), MUB40-Cy5 (SEQ ID NO: 3) or Cy5 only. Fluorescence was quantified at the level of front or hind ankles (in ROI, as indicated).
(B) Quantification of the fluorescent signal associated with RI-MUB40 (SEQ ID NO: 2)-Cy5, MUB40 (SEQ ID NO: 3)-Cy5 or Cy5 accumulation at hind and front ankles (top) or hind ankles only (bottom). Results are average from at least three animals. ** indicates p<0.01 and *** indicates p<0.001 (Student's T-test).

Sequence of trypsin (P00761 9-231): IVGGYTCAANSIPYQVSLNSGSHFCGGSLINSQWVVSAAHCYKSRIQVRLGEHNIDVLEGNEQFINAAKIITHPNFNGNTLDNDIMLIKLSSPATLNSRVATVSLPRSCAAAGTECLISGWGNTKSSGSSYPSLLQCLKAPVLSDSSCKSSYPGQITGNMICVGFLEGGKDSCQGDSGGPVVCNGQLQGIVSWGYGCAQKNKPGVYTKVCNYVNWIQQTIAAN

Substance | labelling of recruited neutrophils [1] | labelling of human neutrophil granules [2] | labelling of recruited neutrophils [3] | degradation by trypsin (in words) (trypsin) | labelling of / binding to human colonic mucus (human colonic mucus) | detection of lactoferrin degranulation on living neutrophils (living human neutrophils; Shigella flexneri MOI 20, 1 μg/mL, 37°C) | crossing of plasma membrane of living cells (living human neutrophils; live cells, listed as RI-MUB40-Cy5) | relation of epifluorescent signal to luminol bioluminescent signal ([4]; hind ankle joints, p≤0.0001) | accumulation of fluorescent signal at inflammatory sites ([4]; i.v. injection, arthritic mice but not naïve controls, day 6) | epifluorescent signal, arthritic mice vs controls ([4]; p≤0.0001, T-test) | binding to mucus produced by human cell lines (L174T) [5] | fluorescent signal accumulation at hind and front inflamed ankles [6]
MUB40-Dylight405: MUB40#1 (SEQ ID NO: 3) labeled with Dylight 405 (CTAEGIKKFEGDGYELFKDNFPAGEKFDNDDTNDQFYTVIF; also: Dylight 405 label (site not given here)) | specifically labeled | specifically labeled | specifically labeled |  |  |  |  |  |  |  |  | 
Ac-[dC](X1)[dF][dI][dV][dT][dY][dF][dQ][dD][dN][dT][dD][dD][dN][dD][dF][dK][dE]G[dA][dP][dF][dN][dD][dK][dF][dL][dE][dY]G[dD]G[dE][dF][dK][dK][dI]G[dE][dA][dT]-NH2 [Cy5-RI-MUB40] |  | validated |  | no degradation | validated | transient, dot-shaped fluorescent signals were detected on the cells' surface | did not cross the plasma membrane of living cells; also recorded: does not cross plasma membrane of live cells | correlated | a fluorescent signal accumulated at inflammatory sites | significantly higher in arthritic mice compared to controls | validated | significantly higher compared to MUB40-Cy5
